SMILES	melting point
Cc1ccc(-n2nnc(C(=O)O)c2C2CC2)cc1	173 to 175 °C
CC(=O)c1cc(Br)sc1C	41 to 43 °C
Cc1cccc2[nH]c(CC#N)nc12	158 to 160 °C
O=S(=O)(Cl)c1csc2ccc(F)cc12	129 to 131 °C
NNC(=O)Cc1cc(=O)[nH]c(S)n1	242 to 244 °C
COC(=O)CCOc1ccc(N)cc1	51 to 53 °C
Cc1cccc(CNc2ccc3[nH]c(=O)[nH]c3c2)c1	216 to 218 °C
CC(C)(C)C1CCCCC(=O)N1 (centres undefined)	126 to 128 °C
CC(=O)N(c1ccc(F)cc1)c1nc(C=O)cs1	216 to 218 °C
O=C(CCl)Nc1ccc(NC(=O)c2cccs2)cc1	243 to 245 °C
N#CCC(=O)c1ccc(OC(F)F)cc1	80 to 82 °C
COc1ccc(-c2nc(CO)no2)cc1	141 to 143 °C
COCCS(=O)(=O)c1ccc(C(=O)O)cc1	160 to 162 °C
O=S(=O)(F)CCn1nnc(-c2ccccc2)n1	97 to 99 °C
CC(C)c1ccc(C(=O)N2CCNCC2)cc1	129 to 131 °C
O=C(c1ccc(Br)cc1)c1cccnc1	124 to 126 °C
Cc1ccccc1-c1cc(N)n(CCO)n1	128 to 130 °C
CC(=O)c1ccc(S(=O)(=O)CC(=O)O)cc1F	149 to 151 °C
Cc1nnc(N2CCCC2)c(C#N)c1C	146 to 148 °C
O=C(O)CS(=O)(=O)c1ccc(Br)cc1	145 to 147 °C
COc1ccc(CCNC(=O)c2ccccc2N)cc1	80 to 82 °C
Cn1cccc1C(=O)NC1CCNCC1	195 to 197 °C
Cc1ccc(O)c(C(=O)Nc2ccncc2)c1	249 to 251 °C

SMILES	melting point
CC(C)NC(=O)NN	77 to 79 °C
CC(=O)NCCc1ccc(C(=O)CCl)cc1F	97 to 99 °C
Nc1nc(-c2sccc2Br)cs1	151 to 153 °C
O=C(CCl)Nc1ccccc1[N+](=O)[O-]	91 to 93 °C
Cc1cc(C(N)C(=O)O)cc(C)c1O (centres undefined)	203 to 205 °C
NNC(=O)Cc1cn2ccccc2n1	128 to 130 °C
Nc1nc(-c2ccccc2)c(-c2ccccc2)o1	150 to 152 °C
CCCC(C)S(N)(=O)=O (centres undefined)	48 to 50 °C
CC(CCc1ccccc1)NS(=O)(=O)c1ccc(Cl)c(C(=O)O)c1 (centres undefined)	94 to 96 °C
O=C(O)Cc1ccc(-n2cccn2)cc1	130 to 132 °C
CN1C(=O)Cc2cc(S)ccc21	104 to 106 °C
NC(=O)c1cc(C(=O)O)c[nH]1	344 to 346 °C
Nc1ccc(CNC(=O)c2ccc(C(F)(F)F)cc2)cc1	163 to 165 °C
CS(=O)(=O)Nc1ccccc1CC(=O)O	126 to 128 °C
O=C(O)c1cccnc1SCc1ccc(F)cc1	191 to 193 °C
COc1ccc(C(=O)c2ccc(Cl)cc2)cc1C	121 to 123 °C
Nc1cc(-c2ccc(I)cc2)[nH]n1	186 to 188 °C
OCc1nnc(S)n1C1CC1	154 to 156 °C
Clc1cc(-c2ncc[nH]2)ccn1	187 to 189 °C
CC(C)Cc1nnc(N)s1	239 to 241 °C
O=C(O)CCCn1cccn1	74 to 76 °C
O=C(O)c1ccnc(SCC(F)(F)F)c1	104 to 106 °C
CNC(=O)c1ccc(C(=O)O)cn1	263 to 265 °C

SMILES	melting point
Cc1cc(C)n2c(C=O)cnc2n1	169 to 171 °C
Cn1c(=O)oc2cc(Br)ccc21	144 to 146 °C
Cn1c(NCCO)nc2ccccc21	75 to 77 °C
Cc1nc2cc(C(=O)O)ccc2n1-c1ccccc1	210 to 212 °C
O=C(O)CC1(CC(=O)Nc2nccs2)CCCCC1	175 to 177 °C
CCCc1cc(=O)c2cc(Oc3ccccc3)ccc2[nH]1	207 to 209 °C
Cc1cc(C)nc(-n2[nH]c(C(=O)O)cc2=O)n1	246 to 248 °C
Cn1cc(S(N)(=O)=O)c2ccccc21	194 to 196 °C
C#CCOc1cccc(C#N)c1	61 to 63 °C
NC(=O)C1CCNc2ccccc21 (centres undefined)	119 to 121 °C
Cn1cc(C=O)c(-c2cccnc2)n1	86 to 88 °C
N#CCCSc1ccc(C(F)(F)F)cc1N	58 to 60 °C
COc1ccc(C(C)CC(=O)O)cc1 (centres undefined)	66 to 68 °C
ClCc1coc(-c2ccc(I)cc2)n1	129 to 131 °C
CN(CC(=O)O)c1ccc(Cl)cn1	135 to 137 °C
CCOC(=O)c1ccc2c(c1)CCCN2	79 to 81 °C
Cc1ccccc1C=NO	38 to 40 °C
CCc1ccccc1Nc1nc(N)nc(CCl)n1	146 to 149 °C
Sc1n[nH]c(-c2ccccn2)n1	279 to 281 °C
Cc1cccc(N2N=C(C(=O)O)CCC2=O)c1	152 to 154 °C
CS(=O)(=O)c1cc(Cl)c(C(=O)O)c(Cl)c1	144 to 146 °C
FC(F)(F)CNc1ccccn1	70 to 72 °C
Nc1cccc2c1CC(O)C2 (centres undefined)	125 to 127 °C

Next, values leading:

melting point	SMILES
162 to 164 °C	O=Cc1cnc2ccc(Br)cn12
45 to 47 °C	CC(=O)N(C)Cc1ccc(C(=O)CCl)cc1
154 to 156 °C	Nc1ccc(S(=O)(=O)NC2CCC(O)CC2)cc1 (centres undefined)
194 to 196 °C	CC(=O)N1c2ccccc2C[C@H]1C(=O)O
95 to 97 °C	CC(C)Oc1ccc(S(=O)(=O)Cl)cc1Cl
128 to 130 °C	NS(=O)(=O)c1ccc(CC(=O)O)s1
149 to 151 °C	O=C1CC(NC(=O)C(F)(F)F)c2ccccc21 (centres undefined)
151 to 153 °C	Cc1ccc(NC(=O)C(C)Cl)cc1S(=O)(=O)N1CCOCC1 (centres undefined)
237 to 239 °C	CN(CC(=O)O)c1ncnc2nc[nH]c12
86 to 88 °C	O=S1(=O)CCC(CO)CC1
176 to 178 °C	O=C(O)Cn1nc(-c2cccs2)oc1=O
174 to 176 °C	CC(Nc1nc2ccccc2s1)C(=O)NN (centres undefined)
273 to 275 °C	O=C(O)c1cc2c([nH]c1=O)CCC2
85 to 87 °C	CC1CC1C(=O)NN (centres undefined)
49 to 51 °C	COc1ccccc1CC(C)CC(=O)O (centres undefined)
339 to 341 °C	CCOC(=O)Nc1nc2ccc(N)cc2s1
114 to 116 °C	Clc1ccc2nccn2n1
124 to 126 °C	O=Cc1cnn(-c2ccc(Br)cc2)c1

melting point	SMILES
118 to 120 °C	Cc1ccc(S(N)(=O)=O)s1
228 to 230 °C	O=C(NC1(c2nn[nH]n2)CCCC1)c1ccccc1
122 to 124 °C	FC(F)(F)Cn1nnnc1S
40 to 42 °C	COC(=O)N1CCC(N)CC1
122 to 124 °C	Nc1cc(-c2ccc(F)cc2F)on1
242 to 244 °C	O=C1CCc2c(O)cccc21
123 to 125 °C	O=C(O)CNc1cccc(C(F)(F)F)c1
111 to 113 °C	Fc1ccccc1-c1c[nH]c(C2CCCN2)n1 (centres undefined)
309 to 311 °C	O=C(O)c1cc(C=Cc2ccncc2)nc2ccc(Br)cc12
164 to 166 °C	Nc1cc(-c2ccc(Cl)cc2)no1
165 to 167 °C	O/N=C(/Cc1nc2ccccc2n1C(F)F)c1ccccc1
200 to 202 °C	CCOC=C1C(=O)N(c2ccc(Cl)cn2)C(=O)c2ccccc21
218 to 220 °C	Cc1c(C(=O)O)cccc1S(N)(=O)=O
166 to 168 °C	CCc1cccc(CC)c1NC(=O)C(C)Cl (centres undefined)
59 to 61 °C	O=C(O)CCSc1ccccc1
93 to 95 °C	COc1ccc(S(=O)(=O)Nc2ccccc2Cl)cc1N
300 to 302 °C	COC(=O)c1ccc(-c2ccc(C(=O)O)cc2)cc1

From a melting point compilation (Tetko et al.)
